Literature values as cited in patent US20250019557A1, “INK SET AND INKJET RECORDING APPARATUS” (KYOCERA Document Solutions Inc., priority 2023, published 2025).

Conditions: octanol/water partition coefficient; literature value, or calculated where none exists

Compound | LogP
CCCCOCCOCCOCCO [Triethylene glycol monobutyl ether] | 0.44
CC(O)CO (stereo not shown) [1,2-Propanediol] | −0.92
OCCCO [1,3-Propanediol] | −1.04
CC(CCO)CCO [3-Methyl-1,5-pentanediol] | 0.35
